Structures can show the parent of a compound that is named as a salt.
system: Acinetobacter baumannii ATCC17961; test: Antimicrobial susceptibility testing: 90% growth inhibitory concentration (IC90) determination in Iso-Sensitest broth, OD600 growth; assay type: cell-based; details: Acinetobacter baumannii, ATCC17961, 16 h, read-out: A. baumannii ATCC 17961 IC90 (uM), strain ATCC 17961, OD600 growth over 16 h
How it was run: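 Growth inhibition is calculated during the logarithmic phase from OD600 readings taken every 20 minutes across 16 h at 35±2° C. Bacteria at ~5×10^(5) CFU/ml face twofold dilution series (e.g. 50 to 0.097 μM final).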

Row | Structure (SMILES) | IC90 [µM]
1 | CCc1cc(Nc2nccn3c(-c4cn(Cc5nccn5C)nc4C(F)(F)F)cnc23)ccc1C(=O)NCCCNCCCCNCCCN [Example 84, N-[3-[4-(3-aminopropylamino)butylamino]propyl]-2-ethyl-4-[[3-[1-[(1-methylimidazol-2-yl)methyl]-3-(trifluoromethyl)pyrazol-4-yl]imidazo[1,2-a]pyrazin-8-yl]amino]benzamide hydrochloride] | 2.98

same assay, conditions: Acinetobacter baumannii, ATCC17961, 16 h, strain ATCC 17961, OD600 growth over 16 h, read-out: A. baumannii ATCC 17961 IC90

Row | Structure (SMILES) | IC90 [µM]
2 | CCc1cc(Nc2nccn3c(-c4cn(CCF)nc4C(F)(F)F)cnc23)ccc1C(=O)N1CCN(C(=O)C2CCNCC2)CC1 [Example 71, [2-ethyl-4-[[3-[1-(2-fluoroethyl)-3-(trifluoromethyl)pyrazol-4-yl]imidazo[1,2-a]pyrazin-8-yl]amino]phenyl]-[4-(piperidine-4-carbonyl)piperazin-1-yl]methanone] | 0.593
3 | C#CCNCCCNC(=O)c1c(C)cc(Nc2nccn3c(-c4cn(CC#C)nc4C(F)(F)F)cnc23)cc1F [Example 72, 2-fluoro-6-methyl-N-[3-(prop-2-ynylamino)propyl]-4-[[3-[1-prop-2-ynyl-3-(trifluoromethyl)pyrazol-4-yl]imidazo[1,2-a]pyrazin-8-yl]amino]benzamide] | 0.599
4 | Cc1cc(Nc2nccn3c(-c4cn(CC#N)nc4C(F)(F)F)cnc23)cc(F)c1C(=O)NCCOCCN [Example 75, N-[2-(2-aminoethoxy)ethyl]-4-[[3-[1-(cyanomethyl)-3-(trifluoromethyl)pyrazol-4-yl]imidazo[1,2-a]pyrazin-8-yl]amino]-2-fluoro-6-methylbenzamide] | 1.7
5 | Cc1cc(Nc2nccn3c(-c4c[nH]nc4C(F)(F)F)cnc23)cc(F)c1C(=O)NCCOCCN [Example 80, N-[2-(2-aminoethoxy)ethyl]-2-fluoro-6-methyl-4-[[3-[3-(trifluoromethyl)-1H-pyrazol-4-yl]imidazo[1,2-a]pyrazin-8-yl]amino]benzamide] | 0.737
6 | Cc1cc(Nc2nccn3c(-c4c[nH]nc4C(F)(F)F)cnc23)cc(F)c1C(=O)NCCCCCN [Example 81, N-(5-aminopentyl)-2-fluoro-6-methyl-4-[[3-[3-(trifluoromethyl)-1H-pyrazol-4-yl]imidazo[1,2-a]pyrazin-8-yl]amino]benzamide] | 1.06
7 | CCc1cc(Nc2nccn3c(-c4cn(Cc5csc(C)n5)nc4C(F)(F)F)cnc23)ccc1C(=O)NCCCNCCCCNCCCN [Example 82, N-[3-[4-(3-aminopropylamino)butylamino]propyl]-2-ethyl-4-[[3-[1-[(2-methyl-1,3-thiazol-4-yl)methyl]-3-(trifluoromethyl)pyrazol-4-yl]imidazo[1,2-a]pyrazin-8 yl]amino]benzamide hydrochloride] | 1.15
8 | Cc1cc(Nc2nccn3c(-c4c[nH]nc4C(F)(F)F)cnc23)cc(F)c1C(=O)N[C@H](C)CN [Example 83, N-[(2R)-1-aminopropan-2-yl]-2-fluoro-6-methyl-4-[[3-[3-(trifluoromethyl)-1H-pyrazol-4-yl]imidazo[1,2-a]pyrazin-8-yl]amino]benzamide] | 2.46
9 | C#CCNCCCNC(=O)c1c(C)cc(Nc2nccn3c(-c4c[nH]nc4C(F)(F)F)cnc23)cc1F [Example 85, 2-fluoro-6-methyl-N-[3-(prop-2-ynylamino)propyl]-4-[[3-[3-(trifluoromethyl)-1H-pyrazol-4-yl]imidazo[1,2-a]pyrazin-8-yl]amino]benzamide] | 3.26

Results, then the compound that gave them:

Row | IC90 [µM] | Structure (SMILES)
10 | 0.433 | C=CCn1cc(-c2cnc3c(Nc4cc(C)c(C(=O)N5CCNCC5)c(F)c4)nccn23)c(C(F)(F)F)n1 [Example 69, [2-fluoro-6-methyl-4-[[3-[1-prop-2-enyl-3-(trifluoromethyl)pyrazol-4-yl]imidazo[1,2-a]pyrazin-8-yl]amino]phenyl]-piperazin-1-ylmethanone]
11 | 0.489 | CCc1cc(Nc2nccn3c(-c4cn(CC(F)F)nc4C(F)(F)F)cnc23)ccc1C(=O)N1CCN(C(=O)C2CCNCC2)CC1 [Example 70, [4-[[3-[1-(2,2-difluoroethyl)-3-(trifluoromethyl)pyrazol-4-yl]imidazo[1,2-a]pyrazin-8-yl]amino]-2-ethylphenyl]-[4-(piperidine-4-carbonyl)piperazin-1-yl]methanone]
12 | 0.687 | Cc1cc(Nc2nccn3c(-c4cn(CCF)nc4C(F)(F)F)cnc23)cc(F)c1C(=O)N1CCNCC1 [Example 73, [2-fluoro-4-[[3-[1-(2-fluoroethyl)-3-(trifluoromethyl)pyrazol-4-yl]imidazo[1,2-a]pyrazin-8-yl]amino]-6-methylphenyl]-piperazin-1-ylmethanone]
13 | 3.29 | Cc1cc(Nc2nccn3c(-c4cn(CC#N)nc4C(F)(F)F)cnc23)cc(F)c1C(=O)N1CCNCC1 [Example 77, 2-[4-[8-[3-fluoro-5-methyl-4-(piperazine-1-carbonyl)anilino]imidazo[1,2-a]pyrazin-3-yl]-3-(trifluoromethyl)pyrazol-1-yl]acetonitrile]
14 | 0.161 | NCC(=O)N1CCN(C(=O)c2ccc(Nc3nccn4c(-c5cn(C(F)F)nc5C(F)(F)F)cnc34)cc2Cl)CC1 [Example 78, 2-amino-1-[4-[2-chloro-4-[[3-[1-(difluoromethyl)-3-(trifluoromethyl)pyrazol-4-yl]imidazo[1,2-a]pyrazin-8-yl]amino]benzoyl]piperazin-1-yl]ethanone]
15 | 0.222 | O=C(c1ccc(Nc2nccn3c(-c4cn(C(F)F)nc4C(F)(F)F)cnc23)cc1Cl)N1CC2(CNC2)C1 [Example 79, [2-chloro-4-[[3-[1-(difluoromethyl)-3-(trifluoromethyl)pyrazol-4-yl]imidazo[1,2-a]pyrazin-8-yl]amino]phenyl]-(2,6-diazaspiro[3.3]heptan-2-yl)methanone]
16 | 3.38 | Cc1cc(Nc2nccn3c(-c4c[nH]nc4C(F)(F)F)cnc23)cc(F)c1C(=O)N1CCNCC1 [Example 86, [2-fluoro-6-methyl-4-[[3-[3-(trifluoromethyl)-1H-pyrazol-4-yl]imidazo[1,2-a]pyrazin-8-yl]amino]phenyl]-piperazin-1-ylmethanone]
17 | 0.359 | NC12CC(NC(=O)c3ccc(Nc4nccn5c(-c6cn(CC(F)F)nc6C(F)(F)F)cnc45)cc3Cl)(C1)C2 [Example 87, N-(3-amino-1-bicyclo[1.1.1]pentanyl)-2-chloro-4-[[3-[1-(2,2-difluoroethyl)-3-(trifluoromethyl)pyrazol-4-yl]imidazo[1,2-a]pyrazin-8-yl]amino]benzamide]
18 | 0.431 | N#CCn1cc(-c2cnc3c(Nc4ccc(C(=O)NC56CC(N)(C5)C6)c(Cl)c4)nccn23)c(C(F)(F)F)n1 [Example 88, N-(3-amino-1-bicyclo[1.1.1]pentanyl)-2-chloro-4-[[3-[1-(cyanomethyl)-3-(trifluoromethyl)pyrazol-4-yl]imidazo[1,2-a]pyrazin-8-yl]amino]benzamide]

same assay, conditions: strain ATCC 17961, OD600 growth over 16 h, read-out: A. baumannii ATCC 17961 IC90

Row | Structure (SMILES) | IC90 [µM]
19 | C#CCNCCCNC(=O)c1c(C)cc(Nc2nccn3c(-c4cn(CCF)nc4C(F)(F)F)cnc23)cc1F [Example 74, 2-fluoro-4-[[3-[1-(2-fluoroethyl)-3-(trifluoromethyl)pyrazol-4-yl]imidazo[1,2-a]pyrazin-8-yl]amino]-6-methyl-N-[3-(prop-2-ynylamino)propyl] benzamide] | 0.781
20 | C#CCNCCCNC(=O)c1c(C)cc(Nc2nccn3c(-c4cn(CC#N)nc4C(F)(F)F)cnc23)cc1F [Example 76, 4-[[3-[1-(cyanomethyl)-3-(trifluoromethyl)pyrazol-4-yl]imidazo[1,2-a]pyrazin-8-yl]amino]-2-fluoro-6-methyl-N-[3-(prop-2-ynylamino)propyl] benzamide] | 2.09

Reference: patent publication US20230203043A1, “NOVEL IMIDAZOPYRAZINE DERIVATIVES” (Hoffmann-La Roche Inc., priority 2020, published 2023)
